Publication PMC6222636, “Determination of Novel Highly Effective Necrostatin Nec-1s in Rat Plasma by High Performance Liquid Chromatography Hyphenated with Quadrupole-Time-of-Flight Mass Spectrometry” (Molecules : A Journal of Synthetic Chemistry and Natural …, 2018)
“And” between values parts separate entries of the source, which are not always exact repeats. Equal values may be shown once. Read-outs that look alike come from different tables or passages of the source.

What was measured:
[1] = set-up: method as in PMID 23190609; conditions: cited from earlier work
[2] = target: receptor interacting protein 1 (RIP1); conditions: cited from earlier work; for IC50: RIP1 inhibitor potency
[3] = test system: receptor interacting protein 1 (RIP1); assay: RIP1 inhibition (necrostatin potency); assay type: biochemical; conditions: Nec-1s vs Nec-1
[4] = set-up: method as in PMID 23190609; conditions: cited from earlier work; remark: listed apart in the source
[5] = Nec-1s plasma levels in rats by HPLC-Q-TOF after i.v. bolus; assay type: in vivo, male Wistar rats; conditions: for concentration at 50 min: male, Wistar, rat, plasma, iv, 0.37 mg/kg
Experimental: The developed and validated HPLC-Q-TOF method was applied for the determination of real plasma concentrations of Nec-1s in 5 male Wistar rats after i.v. administration of a bolus dose of Nec-1s (0.37 mg/kg). The samples taken from each subject were prepared and analyzed in triplicate. […] The measured data were consistent to each other with plasma concentrations in the range of 319.81–466.52 nM, and mean value of 377.26 nM. The differences in the found concentrations can be explained by different metabolism in the studied animals.
A total of 11 male Wistar rats (250–300 g body weight) were housed under standard conditions with a controlled light/dark cycle (12/12 h) and temperature (22 °C ± 2 °C), and fed a standard diet and tap water ad libitum. The anesthetized animals (natrium pentobarbital 60 mg/kg, i.p.) were randomized in two groups to receive either vehicle (C, n = 6) or Nec-1s (N, n = 5) and blood was collected from the abdominal aorta 50-min after drug application (a bolus dose; 0.37 mg/kg, i.v.; diluted in 20% v/v DMSO) into EDTA-containing syringes (S-Monovette, Starstedt, Germany). To obtain plasma, the blood was centrifuged at 4 °C for 15 min at 4000× g. The aliquots of plasma were stored at −80 °C until further procedure.
An aliquot of plasma was thawed at laboratory temperature. Afterwards, the rat plasma (180 µL) was mixed with the internal standard solution (20 µL, 1.25 µg/mL of prednisone in 50% (v/v) methanol). […] The precipitated sample was vortexed for 5 min (2400 rpm) and then centrifuged for 10 min (15000× g; 4 °C). After the centrifugation, 800 µL of supernatant was transferred into another tube and evaporated to dryness under a gentle stream of nitrogen at ambient temperature. The residuals were reconstituted with 100 µL of mobile phase (25:75 mixture of acetonitrile and water containing 0.1% formic acid) and an aliquot of the solution (5 µL) was used for the HPLC-DAD-Q-TOF analysis.
All of the analyses were carried out on the chromatographic apparatus consisting of LC Agilent Infinity System (Agilent Technologies, Santa Clara, CA, USA) equipped with a gradient pump (1290 Bin Pump VL), an automatic injector (1260 HiPals), and column thermostat (1290 TCC; set at 4 °C). The LC system was hyphenated with a photodiode array detector (Infinity 1290 DAD), and quadrupole time-of-flight (Q-TOF) mass spectrometer (Agilent 6520 Accurate-Mass Q-TOF LC/MS) equipped with the electrospray ionization (ESI) source operated in a positive ionization mode. A computer with a MassHunter software (version MassHunter Workstation B.05.01, Agilent Technologies) was used to control the apparatus as well as acquire and process the data. The Q-TOF mass spectrometer was operated under following parameters: drying gas temperature 360 °C, drying gas flow 12 L/min, nebulizing gas pressure 60 psi, capillary voltage 5500 V, fragmentor voltage 125 V, skimmer voltage 65 V, OctopoleRFPeak 550 V, and collision gas N2. […] In the processing the exact (theoretical) masses of their [M + H]^+ (278.0691 for Nec-1s; 359.1853 for prednisone), and [M + Na]^+ (300.0510 for Nec-1s; 381.1672 for prednisone) adducts were used. For the MS spectra obtained by the analysis of the stock solutions of Nec-1s and prednisone see Figure 4. The theoretical and experimentally found masses of the Nec-1s and prednisone adducts were in a very good mutual agreement so that Q-TOF was suitable for an unambiguous confirmation of the identity of the analyzed compounds in the samples. The EIC were extracted with m/z expansion of ±10 ppm. In case of DAD detector, the peak areas of the analyte and IS were evaluated at the wavelength of 280 nm.
The chromatographic separation of the Nec-1s was achieved by using RP-C18 chromatographic column–Zorbax Extend-C18, 2.1 × 50 mm, 1.8 µm obtained from Agilent Technologies. A gradient elution of mobile phases consisting of 0.1% formic acid in LC-MS water (A) and 0.1% formic acid in acetonitrile (B) was used. […]

[6] = test system: indoleamine 2,3-dioxygenase (IDO); set-up: method as in PMID 23190609; conditions: cited from earlier work
[7] = test system: abdominal aortic aneurisms (elastase perfusion); set-up: method as in PMID 28186202; conditions: mice with aneurysm induced by elastase perfusion, cited from earlier work
[8] = set-up: method as in PMID 28946210; conditions: rat plasma, cited from earlier work
[9] = individual rats N1-N5, 50 min after i.v. bolus dose 0.37 mg/kg, n = 3 analyses

concentration at 50 min ([5]; 50 min after i.v. bolus dose 0.37 mg/kg, 5 male Wistar rats, read-out: plasma concentration, mean value of 5 rats) [nM] | concentration at 50 min ([5]; 50 min after i.v. bolus dose 0.37 mg/kg, 5 male Wistar rats, read-out: plasma concentrations, range over 5 rats) [nM] | concentration at 50 min ([5]; individual rats N1-N5, 50 min after i.v. bolus dose 0.37 mg/kg, n = 3 analyses, read-out: Plasma Concentration) [nM] | concentration at 50 min ([5]; individual rats N1-N5, 50 min after i.v. bolus dose 0.37 mg/kg, n = 3 analyses, read-out: Plasma Concentration (ng/mL)) [ng/mL] | Compound | metabolic stability in comparison to Nec-1 [1] | IC50 [2] [nM] | inhibition activity relative to Nec-1 [3] [times] | in vivo and in vitro toxicity compared with Nec-1 [4] | Plasma Concentration (nM) [5, 9] | Plasma Concentration (ng/mL) [5, 9] | effect on IDO [6] | aortic expansion ([7]; control 172.80%, p < 0.05) [%] | concentration level at 5 min after i.v. administration ([8]; i.v., 5 min) [ng/mL] | concentration level at 1 h after i.v. administration ([8]; i.v., 1 h) [ng/mL] | concentration level at 8 h after i.v. administration ([8]; i.v., 8 h) [ng/mL] | concentration after 8 h, oral administration ([8]; oral, after 8 h) | peak concentration after oral administration ([8]; oral) [ng/mL] | time of peak concentration after oral administration ([8]; oral) [h] | aortic diameter vs control ([7]; p = 0.1) | capability to inhibit RIP1 [2]
377 | 320 to 467 | 374 | 104 | CN1C(=O)NC(Cc2c[nH]c3c(Cl)cccc23)C1=O (centres unmarked) [Nec-1s, 5-((7-chloro-1H-indol-3-yl)methyl)-3-methyl-2,4-imidazolidinedione] | metabolically more stable | 210 | 2 | reduced | 327.43 nM and 398.08 nM and 319.81 nM and 466.52 nM | 90.93 ng/mL and 110.55 ng/mL and 88.81 ng/mL and 129.56 ng/mL | does not influence IDO | 64.12 | – | – | – | – | – | – | – | –
– | – | – | – | CN1C(=O)C(Cc2c[nH]c3ccccc23)NC1=S (centres unmarked) [Nec-1, 5-(indol-3-ylmethyl)(2-thio-3-methyl)hydantoin] | – | 494 | – | – | – | – | concomitant inhibition of indoleamine 2,3-dioxygenase (IDO) | – | 1733 | 617 | < 100 | undetectable | 648 | 1 | smaller but the difference was not statistically significant | –
– | – | – | – | O=C1NC(=S)NC1Cc1c[nH]c2ccccc12 (centres unmarked) [Nec-1i] | – | – | – | – | – | – | found to be an IDO inhibitor | – | – | – | – | – | – | – | – | lacking the capability to inhibit RIP1
